Reference: patent US12691108B2, “Methods for treating vascular malformations” (Deciphera Pharmaceuticals, LLC, priority 2019, dated 2026)

Assays:
TIE2 mutant HUVECs [1] = experiment: Mutant TIE2-transfected HUVEC cell morphology assay; assay type: cell-based, human; conditions: 100 nM, imaged at 24 and 48 hours, TIE2 mutant HUVECs compared with WT TIE2 HUVECs
Method: (§1) HUVECs used for in vitro work were kindly provided by Dr. Lauri Eklund (Oulu, Finland). Briefly, cells were grown in endothelial cell growth media (Tebu-Bio, Boechout, Belgium) containing 10% fetal calf serum (Sigma-Aldrich, Diegem, Belgium) at 37 degrees Celsius, 5% CO2, and 95% humidity. Cells were allowed to expand until reaching 90-95% confluence at which point they were subcultured or harvested for assay use.
HUVEC cells (5×10^5 cells/plate) stably expressing WT or TIE2 mutants R849W, L914F, R1099*, Y897C/R915C, Y897F/F915L, or T1105N/T1106P were added to a 10 cm plate coated with attachment factor solution (Tebu-Bio, Boechout, Belgium) in 6 mL of endothelial cell growth media (Tebu-Bio, Boechout, Belgium) containing 10% fetal calf serum (Sigma-Aldrich, Diegem, Belgium). Cells were then incubated for 2 days at 37 degrees Celsius, 5% CO2, and 95% humidity. Next, test compound or DMSO was added to the wells (0.068% final DMSO concentration). The plates were then further incubated for 48 hours at 37 degrees Celsius, 5% CO2, and 95% humidity. The cells were imaged by microscopy at 24 hours and 48 hours after addition of compound.

STAT1 = experiment: Mutant TIE2-transfected HUVEC Western blot assay: STAT1 phosphorylation downstream of TIE2; assay type: cell-based, human; conditions: 100 nM, 4 hours, HUVECs with WT TIE2 and TIE2 mutants, presence or absence of ANGPT1 stimulation
Method: as §1
(§2) HUVEC cells (2.5×10^5 cells/well) stably expressing WT or TIE2 mutants R849W, L914F, R1099*, Y897C/R915C, Y897F/F915L, or T1105N/T1106P were added to a 6-well plate coated with attachment factor solution (Tebu-Bio, Boechout, Belgium) in 2 mL of endothelial cell growth media (Tebu-Bio, Boechout, Belgium) containing 10% fetal calf serum (Sigma-Aldrich, Diegem, Belgium). Cells were subsequently incubated overnight at 37 degrees Celsius, 5% CO2, and 95% humidity. The next day test compound or DMSO was added to the wells (0.068% final DMSO concentration). The plates were then incubated for 4 hours at 37 degrees Celsius, 5% CO2, and 95% humidity. Next, cells were stimulated with 1 μg/mL ANGPT1 for 15 minutes. Cells were lysed and pTIE2, TIE2, b-actin, pAKT (S473), pAKT (T308), AKT, pSTAT1, and STAT1 were detected by Western blot.

AKT = experiment: Mutant TIE2-transfected HUVEC Western blot assay: AKT phosphorylation downstream of TIE2; assay type: cell-based, human; conditions: 100 nM, 4 hours, HUVECs with WT TIE2 and TIE2 mutants, presence or absence of ANGPT1 stimulation
Method: as §1, §2

[2] = test system: HUVEC cells expressing mutant TIE2-L914F (VM lesions in matrigel plugs); experiment: Venous malformation mouse model, diet from day of injection (Day 0); assay type: in vivo, athymic nude male mice
Method: (§3) For the in vivo model, fresh HUVEC transfectants were made using lentiviral infection. […]. Subsequently, 25,000 HUVECs/well (LGC Standards sarl, France) were grown on a 24-well plate for 24 hrs, infected with 500 μl of the lentivirus-TIE2-L914F mix, then cultured for another 48 hrs, collected, then frozen.
(§4) To evaluate the effect of the compound on vascular malformation (VM) lesion development in vivo, HUVEC cells (2.5×10^6) expressing mutant TIE2-L914F were cultured, detached, then resuspended in 200 μL matrigel (Corning). The mixture was injected subcutaneously into the dorsal back of athymic nude male mice, aged 5-7 weeks (Charles River). […] At post-implant day 7 or 16, mice were euthanized and the skin surrounding each matrigel plug was excised, then pinned flat onto a styrofoam board and fixed in 10% neutral buffered formalin solution (Sigma-Aldrich, Diegem, Belgium) overnight. Matrigel plugs were removed from the murine skin, dehydrated in a series of graded alcohol, and embedded in paraffin. Paraffin-embedded plugs were then cut into 5 μm sections for histological analysis. After de-paraffinization in xylene and rehydration in a series of degraded alcohol, sections were subjected to heat-induced antigen-retrieval in 0.1 M citrate buffer, pH 6.0, with or without 0.05% Tween-20. For immunohistochemical staining, sections were blocked with 3% H2O2 (Sigma-Aldrich, Diegem, Belgium), incubated with a biotinylated antibody against the human endothelial cell marker Ulex europaeus Agglutinin 1 (UEA1) (Vector labs, Brussels, Belgium), followed by a horseradish peroxidase-conjugated streptavidin secondary antibody (GE Healthcare, Diegem, Belgium), then in a DAB solution (Vector labs, Brussels, Belgium). Sections were counterstained with hematoxylin and mounted with VectaMount permanent mounting medium (Vector labs, Brussels, Belgium). For immunofluorescent staining (IF), sections were incubated with primary antibodies that recognize UEA1, the smooth muscle layer marker SMA (clone 1A4, Sigma-Aldrich, Diegem, Belgium), phosphorylated-TIE2(Y772) (Bioke, Leiden, Netherlands), or total TIE2 (Santa Cruz, Heidelberg, Germany). Secondary antibodies used were conjugated to Alexa488-, Alexa649-, or CY5-fluorophores. Slides were mounted with VectaShield Hardset mounting medium with DAPI (Vector labs, Brussels, Belgium). Images were acquired via a Panoramic 250 Flash III digital slide scanner (3D Histech, Hungary) and visualized with Caseviewer version 2.2 software (3D Histech, Hungary). The average vessel area was quantitated by making snapshots at a 20× objective of at least 5 areas of each matrigel plug and measuring the area of a least 6 UEA+ vessels each using ImageJ software.
To evaluate the overall vascular morphology within the explants, wholemount IF of vessels within matrigel plugs was done. After excising skins with matrigel plugs attached and flat-fixing them overnight in 10% neutral buffered formalin, an approximately 100-200 μm piece of the plug was sliced off and washed in 1×PBS. The pieces were blocked overnight in 1% BSA (v/v) (Gibco) and 0.3% Triton-X100 (Sigma-Aldrich, Diegem, Belgium) in 1×PBS, then incubated in UEA1 for at least 72 hours, followed by in CY5-streptavidin secondary antibody (Vector labs, Brussels, Belgium). Pieces were then post-fixed in 10% NBF for 10 min, then mounted with Fluormount G (Thermo Fischer Scientific, Merelbeke, Belgium). Z-stack images were acquired with a Zeiss cell observer spinning disk confocal microscope (Zeiss, Germany); 3-D projections of Z-stacks were generated by the AriVis4D software. […] Non-vascularized UEA+ cells were also present but the expression is reduced. Also conducted were comparisons of treated and untreated VM lesions at day 16 with wild type and L914F TIE2 mutants in which treatment began at day 0 (FIG. 18A-D) or day 7 (FIG. 19A-C).

WT TIE2 and TIE2 mutants = experiment: Mutant TIE2-transfected HUVEC Western blot assay: TIE2 phosphorylation; assay type: cell-based, human; conditions: 100 nM, 4 hours, HUVECs with WT TIE2 and TIE2 mutants, presence or absence of ANGPT1 stimulation
Method: as §1, §2

[3] = test system: HUVEC cells expressing mutant TIE2-L914F (VM lesions in matrigel plugs); experiment: Venous malformation mouse model, previously established VM lesions, diet from post-implant day 7; assay type: in vivo, athymic nude male mice
Method: as §3
as §4, with “For immunofluorescent staining (IF), sections were incubated with primary antibodies that recognize UEA1, the smooth muscle layer marker SMA (clone 1A4, Sigma-Aldrich, Diegem, Belgium), phosphorylated-TIE2(Y772) (Bioke, Leiden, Netherlands), or total TIE2 (Santa Cruz, Heidelberg, Germany). Secondary antibodies used were conjugated to Alexa488-, Alexa649-, or CY5-fluorophores. Slides were mounted with VectaShield Hardset mounting medium with DAPI (Vector labs, Brussels, Belgium). Images were acquired via a Panoramic 250 Flash III digital slide scanner (3D Histech, Hungary) and visualized with Caseviewer version 2.2 software (3D Histech, Hungary).” left out, “software. […]” for “software.”

[4] = test system: TIE2 mutant expressing HUVECs; experiment: Mutant TIE2-transfected fibronectin assay (extracellular matrix); assay type: cell-based, human; conditions: 100 nM, 48 hours, TIE2 mutant HUVECs versus WT TIE2
Method: as §1
HUVEC cells (3×10^5 cells/well) stably expressing WT or TIE2 mutants R849W, L914F, R1099*, Y897C/R915C, Y897F/F915L, or T1105N/T1106P were added to a 6-well plate coated with attachment factor solution (Tebu-Bio, Boechout, Belgium) in endothelial cell growth media (Tebu-Bio, Boechout, Belgium) containing 10% fetal calf serum (Sigma-Aldrich, Diegem, Belgium). Cells were then incubated for 24 hours at 37 degrees Celsius, 5% CO2, and 95% humidity. Next, test compound or DMSO was added to the wells (0.068% final DMSO concentration). The plates were then further incubated for 48 hours at 37 degrees Celsius, 5% CO2, and 95% humidity. Cells were switched into 2% FBS for overnight. Intracellular fibronectin levels were lower in transfectants, thus cellular lysates were collected and used as controls. […]

TIE2 mutant HUVECs [5] = experiment: Mutant TIE2-transfected gene expression assay (quantitative PCR); assay type: cell-based, human; conditions: 100 nM, 48 hours, normalized to GAPDH
Method: as §1
HUVEC cells (5×10^5 cells/plate) stably expressing WT or TIE2 mutants R849W, L914F, R1099*, Y897C/R915C, Y897F/F915L, or T1105N/T1106P were added to a 10 cm plate coated with attachment factor solution (Tebu-Bio, Boechout, Belgium) in endothelial cell growth media (Tebu-Bio, Boechout, Belgium) containing 10% fetal calf serum (Sigma-Aldrich, Diegem, Belgium). Cells were then incubated for 2 days at 37 degrees Celsius, 5% CO2, and 95% humidity. Next, test compound or DMSO was added to the wells (0.068% final DMSO concentration). The plates were then further incubated for 48 hours at 37 degrees Celsius, 5% CO2, and 95% humidity. RNA was extracted by collecting the cells into TriPure isolation reagent (Sigma-Aldrich, Diegem, Belgium). Subsequently, cDNA from extracted RNA was synthesized using RevertAid H Minus first strand cDNA synthesis kit (Thermo Fischer Scientific, Merelbeke, Belgium). Quantitative PCR was carried out using LightCycler480 SYBRGreen master mix and a LightCycler 480 II instrument (Roche, Switzerland). cDNA for ANGPT2, PDGFB, ADAMTS1, ADAMTS9, PLAT, and PLAU were quantified and normalized to the expression from the housekeeping gene GAPDH.

[6] = diet equivalent to 10 mg/kg from Day 0, post-implant day 7
[7] = diet equivalent to 10 mg/kg from Day 0, post-implant day 7, versus control diet
[8] = diet equivalent to 10 mg/kg from Day 0, post-implant day 16

SMILES: CNC(=O)c1cc(Oc2ccc(NC(=O)Nc3cc(C(C)(C)C)nn3-c3ccc4ncccc4c3)c(F)c2)ccn1 [compound of Formula I, rebastinib]
- cellular morphology (TIE2 mutant HUVECs [1]): restored cellular morphology
- inhibition of STAT1 phosphorylation (STAT1): complete inhibition
- inhibition of AKT Ser473 phosphorylation (AKT): complete inhibition
- inhibition of AKT Thr308 phosphorylation (AKT): complete inhibition
- gross appearance of blood-filled vascular channels (macroscopic view of lesions) ([2]; diet equivalent to 10 mg/kg from Day 0, compared to untreated mutants): more controlled and less severe
- overall vascular morphology (wholemount IF) [2, 6]: more normal, tubular vessels were seen
- smooth muscle cell/pericyte coverage (SMA staining) [2, 6]: displayed a few SMA positive cells
- average area of vessels within the plugs [2, 7]: drastically less
- expression of pTIE2 in ECs [2, 7]: weaker
- overall vascular morphology (wholemount IF) [2, 8]: largely normalized
- smooth muscle cell/pericyte coverage (SMA+ cells) [2, 8]: surrounded more consistently by SMA+ cells
- vessel size in lesions ([2]; diet equivalent to 10 mg/kg from Day 0, post-implant day 16, versus control diet and untreated): much smaller vessels
- pTIE2 in ECs ([2]; diet equivalent to 10 mg/kg from Day 0, post-implant day 16, versus untreated): drastically reduced
- VM development ([2]; mice fed compound-infused food): reduced VM development
- inhibition of TIE2 phosphorylation (WT TIE2 and TIE2 mutants): complete inhibition
- severity of established VMs ([3]; diet from post-implant day 7): ameliorated the severity of VMs
- average vascular area of vessels ([3]; diet from post-implant day 7, explants day 16): moderately reduced
- smooth muscle cell layer coverage ([3]; diet from post-implant day 7, explants day 16, versus control diet): improved smooth muscle cell layer coverage
- fibronectin levels in the extracellular matrix [4]: restored fibronectin levels
- expression of ADAMTS1 RNA (TIE2 mutant HUVECs [5]): decreased expression
- expression of ADAMTS9 RNA (TIE2 mutant HUVECs [5]): decreased expression
- expression of ANGPT2 RNA (TIE2 mutant HUVECs [5]): increased expression
- expression of PDGFB RNA (TIE2 mutant HUVECs [5]): increased expression
- expression of PLAT RNA (TIE2 mutant HUVECs [5]): decreased expression
- expression of PLAU RNA (TIE2 mutant HUVECs [5]): decreased expression
